According to patent US8853258B2, “C-linked hydroxamic acid derivatives useful as antibacterial agents” (Pfizer Inc., priority 2009, dated 2014):
≈ marks a conversion by molar mass, not a printed value. Read-outs that look alike come from different tables or passages of the source.

Experiments:
[1] = biological target: Pseudomonas aeruginosa LpxC enzyme (Pseudomonas aeruginosa (strain ATCC 15692 / DSM 22644 / CIP 104116 / JCM 14847 / LMG 12228 / 1C / PRS 101 / PAO1), UniProt P47205); assay: IC50 Assay, LpxC Enzyme from P. aeruginosa (PA LpxC Enzyme IC50); format: biochemical
Description: In order to assess the compounds biological activity, selected in-vitro assays were conducted on selected compounds. One of the assays measured the compounds ability to disrupt the synthesis of lipopolysaccharide, LPS, which is a component of the outer membrane of Gram-negative bacteria. Disruption of this synthesis is lethal to the bacteria. The assay determined the compound's ability to inhibit LpxC, which is the first enzyme in the biosynthetic pathway for LPS (measured as IC50). Additionally, MICs (minimal inhibitory concentrations) were determined for several bacteria. The specific protocols are described below:
A) IC50 Assay, LpxC Enzyme from P. aeruginosa (Labled as PA LpxC Enzyme IC50
At the end of 1 hour, 5 ul of 1N HCl was added to stop the enzyme reaction; the plates were centrifuged, and then processed with the BioTrove Rapidfire HTMS Mass Spectrometry System. A no-enzyme control was used in calculating the IC50 values from the percent conversion values.

[2] = system: Acinetobacter baumanii/haemolyticus: Multidrug-resistant clinical isolate (AB-3167); assay: MIC determination (CLSI), AB-3167; format: cell-based; conditions: for MIC: Acinetobacter baumannii
How it was run: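 Multidrug-resistant clinical isolate AB-3167 (A. baumannii/haemolyticus) tested for minimum inhibitory concentration following CLSI dilution susceptibility standards M7-A7 and M100-S18.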

[3] = system: Pseudomonas aeruginosa UI-18: Wild-type (PA-7); assay: MIC determination (CLSI), PA-7; format: cell-based; conditions: for MIC: Pseudomonas aeruginosa
How it was run: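 MIC by dilution method per CLSI M7-A7 and M100-S18 guidelines. Strain: wild-type Pseudomonas aeruginosa UI-18.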

[4] = system: Klebsiella pneumoniae: Ciprofloxacin-resistant isolate, ESBL, clinical isolate (KP-3700); assay: MIC determination (CLSI), KP-3700; format: cell-based
How it was run: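 MIC measured by broth dilution according to CLSI M7-A7 and M100-S18 standards. Test organism was a ciprofloxacin-resistant, ESBL-expressing clinical isolate.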

[5] = system: Escherichia coli EC-1: VOGEL, mouse virulent; assay: MIC determination (CLSI), EC-1; format: cell-based; conditions: for MIC: Escherichia coli
How it was run: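 E. coli Vogel, a mouse-virulent strain (EC-1), was tested. MICs were set by dilution susceptibility testing per CLSI standards M7-A7/M100-S18.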

[6] = Table 3, read-out: PA LpxC enzyeme IC^50
[7] = P. aeruginosa LpxC enzyme, read-out: PA LpxC enzyeme IC50
[8] = Acinetobacter baumanii/haemolyticus multidrug-resistant clinical isolate AB-3167
[9] = Pseudomonas aeruginosa UI-18 wild-type PA-7
[10] = Escherichia coli EC-1 VOGEL, mouse virulent
[11] = Acinetobacter baumanii/haemolyticus AB-3167
[12] = Pseudomonas aeruginosa UI-18 (PA-7)
[13] = Table 1, read-out: PA LpxC enzyeme IC50
[14] = Table 1, MIC, read-out: AB-3167 (MIC)
[15] = Table 1, MIC, read-out: PA-7 (MIC)

SMILES | IC50 [1, 6] [nM] | MIC ([2]; Table 3, read-out: AB-3167 MIC) [µg/mL] | MIC ([3]; Table 3, read-out: PA-7 MIC) [µg/mL] | KP-3700 MIC [4] | MIC ([5]; read-out: EC-1 MIC) [µg/mL] | IC50 [1, 7] [nM] | AB-3167 MIC [2, 8] | PA-7 MIC [3, 9] [µg/mL] | EC-1 MIC [5, 10] [µg/mL] | other results
Cc1cccc(-c2nc(COc3ccc(CCC(C)(C(=O)NO)S(C)(=O)=O)cc3)c(C)o2)c1 (centres unmarked) [Example 278, N-hydroxy-2-methyl-4-(4-{[5-methyl-2-(3-methylphenyl)-1,3-oxazol-4-yl]methoxy}phenyl)-2-(methylsulfonyl)butanamide] | 10.4 | ≥ 64 | ≥ 64 | ≧64 mg/L | 32 (≈ 67.7 µM) | – | – | – | – | –
CC(CCc1ccc(-c2ccc(N3CCNCC3)cc2)cc1)(C(=O)NO)S(C)(=O)=O (centres unmarked) [Example 185] | – | – | – | ≧64 mg/L | – | 6.22 | ≧64 mg/L | 8 | 16 | –
CC(CCc1ccc(OCc2cccc(F)c2F)cc1)(C(=O)NO)S(C)(=O)=O (centres unmarked) [Example 247, 4-{4-[(2,3-difluorobenzyl)oxy]phenyl}-N-hydroxy-2-methyl-2-(methylsulfonyl)butanamide] | 0.325 | 16 (≈ 38.7 µM) | 2 (≈ 4.84 µM) | 16 µg/mL | 2 (≈ 4.84 µM) | – | – | – | – | –
CC(CCc1ccc(OCc2ccc(F)cc2F)cc1)(C(=O)NO)S(C)(=O)=O (centres unmarked) [Example 294, 4-{4-[(2,4-difluorobenzyl)oxy]phenyl}-N-hydroxy-2-methyl-2-(methylsulfonyl)butanamide] | 0.992 | 32 (≈ 77.4 µM) | 4 (≈ 9.67 µM) | 16 µg/mL | 4 (≈ 9.67 µM) | – | – | – | – | –
C[C@@](CCc1ccc(-c2ccc(OCCCN3CCOCC3)cc2)cc1)(C(=O)NO)S(C)(=O)=O [Example 179] | – | – | – | 2 µg/mL | – | 0.172 | 2 µg/mL | 2 | 0.125 | –
C[C@@](CCc1ccc(-c2cnc3ccccc3c2)cc1)(C(=O)NO)S(C)(=O)=O [Example 201] | – | – | – | 8 µg/mL | – | 0.24 | – | – | – | AB-3167 MIC [2, 11]: ≧64 mg/L; PA-7 MIC [3, 12]: 2 µg/mL; EC-1 MIC ([5]; Escherichia coli EC-1): 1 µg/mL
CC(CCc1ccc(C2=CCCCCC2)cc1)(C(=O)NO)S(C)(=O)=O (centres unmarked) [Example 13, 4-(4-Cyclohept-1-en-1-ylphenyl)-N-hydroxy-2-methyl-2-(methylsulfonyl)butanamide] | – | – | – | 4 µg/mL | – | – | – | – | – | IC50 [1, 13]: 0.29 nM; MIC [2, 14]: 0.5 µg/mL (≈ 1.37 µM); MIC [3, 15]: 1 µg/mL (≈ 2.74 µM); MIC ([5]; read-out: EC-1: (MIC)): 2 µg/mL (≈ 5.47 µM)
CC(CCc1ccc(Sc2ccccc2)cc1)(C(=O)NO)S(C)(=O)=O (centres unmarked) [Example 12, N-Hydroxy-2-methyl-2-(methylsulfonyl)-4-[4-(phenylthio)phenyl]butanamide] | – | – | – | 32 µg/mL | – | – | – | – | – | IC50 [1, 13]: 11.9 nM; MIC [2, 14]: 8 µg/mL (≈ 21.1 µM); MIC [3, 15]: 8 µg/mL (≈ 21.1 µM); MIC ([5]; read-out: EC-1: (MIC)): 8 µg/mL (≈ 21.1 µM)
CC(CCc1ccc(-c2ccc(CCO)cc2)cc1)(C(=O)NO)S(C)(=O)=O (centres unmarked) [Example 34] | – | – | – | 8 µg/mL | – | 0.331 | ≧64 mg/L | 4 | 4 | –
C[C@@](CCc1ccc(-c2ccc(OCCN3CCOCC3)cc2)cc1)(C(=O)NO)S(C)(=O)=O [Example 172] | – | – | – | 4 µg/mL | – | 0.512 | ≧64 mg/L | 4 | 0.5 | –
Cc1cc(CCC(C)(C(=O)NO)S(C)(=O)=O)ccc1-c1ccc(C#N)cc1 (centres unmarked) [Example 162] | – | – | – | 16 µg/mL | – | 0.241 | 16 µg/mL | 4 | 2 | –
CC(CCc1ccc(C2=CCSCC2)cc1)(C(=O)NO)S(C)(=O)=O (centres unmarked) [Example 226] | – | – | – | 8 µg/mL | – | 0.32 | – | – | – | AB-3167 MIC [2, 11]: 16 µg/mL; PA-7 MIC [3, 12]: 1 µg/mL; EC-1 MIC ([5]; Escherichia coli EC-1): 8 µg/mL
Cc1ccccc1COc1ccc(CCC(C)(C(=O)NO)S(C)(=O)=O)cc1 (centres unmarked) [Example 260, N-hydroxy-2-methyl-4-{4-[(2-methylbenzyl)oxy]phenyl}-2-(methylsulfonyl)butanamide] | 1.45 | 32 (≈ 81.7 µM) | 8 (≈ 20.4 µM) | ≧64 mg/L | 16 (≈ 40.9 µM) | – | – | – | – | –
